Consider 26 compounds from patent US20250163021A1, “2-METHYL-4-PHENYLPIPERIDIN-4-OL DERIVATIVES AS INHIBITORS OF APOL1 AND METHODS OF USING SAME” (Vertex Pharmaceuticals Incorporated, priority 2022, published 2025).

The target in this assay is T1, APOL1 (Homo sapiens, UniProt O14791).
T1 sequence (O14791 1-398 S342G/I384M): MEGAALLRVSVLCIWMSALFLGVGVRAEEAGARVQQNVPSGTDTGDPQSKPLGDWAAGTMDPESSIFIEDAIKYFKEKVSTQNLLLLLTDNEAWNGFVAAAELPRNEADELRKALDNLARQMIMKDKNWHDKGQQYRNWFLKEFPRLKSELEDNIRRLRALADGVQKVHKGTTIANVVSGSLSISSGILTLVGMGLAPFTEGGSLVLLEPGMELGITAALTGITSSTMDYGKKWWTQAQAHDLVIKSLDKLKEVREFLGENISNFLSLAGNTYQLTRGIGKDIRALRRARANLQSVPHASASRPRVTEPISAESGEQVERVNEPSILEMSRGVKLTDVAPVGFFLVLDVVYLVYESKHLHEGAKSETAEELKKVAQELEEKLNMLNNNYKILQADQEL
Put plainly: MultiTox-Fluor Multiplex Cytotoxicity Assay in tet-inducible APOL1 T-REx-HEK293 cells. The assay is classed as cell-based. The note with it: tet-inducible transgenic APOL1 T-REx-HEK293 cells, 50 ng/mL tet, 24 hours; ratio of dead to live cells; APOL1 variant (G0/G1/G2) not stated; read-out: IP50 (nM) (i.e., IC50 for cell proliferation). The procedure:
The MultiTox-Fluor Multiplex Cytotoxicity Assay is a single-reagent-addition, homogeneous, fluorescence assay that measures the number of live and dead cells simultaneously in culture wells. The assay measures cell viability and cytotoxicity by detecting two distinct protease activities. The live-cell protease activity is restricted to intact viable cells and is measured using a fluorogenic, cell-permeant peptide glycyl-phenylalanylamino fluorocoumarin (GF-AFC) substrate. The substrate enters intact cells, where it is cleaved to generate a fluorescent signal proportional to the number of living cells. […] A second, cell-impermeant, fluorogenic peptide substrate (bis-AAF-R^110 Substrate) is used to measure dead-cell protease that has been released from cells that have lost membrane integrity. A ratio of dead to live cells is used to normalize data.
Briefly, the tet-inducible transgenic APOL1 T-REx-HEK293 cell lines were incubated with 50 ng/mL tet to induce APOL1 in the presence of 3-(2-(4-fluorophenyl)-1H-indol-3-yl)-N-((3S,4R)-4-hydroxy-2-oxopyrrolidin-3-yl)propenamide at 10.03, 3.24, 1.13, 0.356, 0.129, 0.042, 0.129, 0.0045, 0.0015, 0.0005 μM in duplicate for 24 hours in a humidified 37° C. incubator. The MultiTox reagent was added to each well and placed back in the incubator for an additional 30 minutes. The plate was read on the EnVision plate reader. A ratio of dead to live cells was used to normalize, and data was imported, analyzed, and fit using Genedata Screener (Basel, Switzerland) software. Data was normalized using percent of control, no tet (100% viability), and 50 ng/mL tet treated (0% viability),and fit using Smart Fit. The reagents, methods, and complete protocol for the MultiTox assay are described below.
Human embryonic kidney (HEK293) cell lines containing a tet-inducible expression system (T-REx™; Invitrogen, Carlsbad, CA) and Adeno-associated virus site 1 pAAVS1-Puro-APOL1 G0 or pAAVS1-Puro-APOL1 G1 or pAAVS1-Puro-APOL1 G2 Clones G0 DC2.13, G1 DC3.25, and G2 DC4.44 were grown in a T-225 flask at ˜90% confluency in cell growth media (DMEM, 10% Tet-free FBS, 2 mM L-glutamine, 100 Units/mL penicillin-streptomycin, 5 μg/mL blasticidin S HCl, 1 μg/mL puromycin dihydrochloride). Cells were washed with DPBS and then trypsinized to dissociate from the flask. Media was used to quench the trypsin, cells were then pelleted at 200 g and resuspended in fresh cell assay media (DMEM, 2% Tet-free FBS, 2 mM L-glutamine, 100 Units/mL penicillin-streptomycin). Cells were counted and diluted to 1.17×10^6 cells/mL. 20 μL of cells (23,400/well) were dispensed in every well of a 384-well Poly-D-Lysine coated plate using the Multidrop dispenser. The plates were then incubated at room temperature for one hour.
Tetracycline is needed to induce APOL1 expression. 1 mg/mL tet stock in water was diluted to 250 ng/mL (5×) in cell assay media. 60 μL of cell assay media (no tet control) was dispensed in columns 1 and 24, and 60 μL of 5× tet in 384-PP-round bottom plate was dispensed in columns 2 to 23 with the Multidrop dispenser.
Assay ready plates from the Global Compound Archive were ordered using template 384_APOL1Cell_DR10n2_50 μM_v3. Compounds were dispensed at 200 nL in DMSO. The final top concentration was 10 μM with a 10 point 3-fold dilution in duplicate in the MultiTox assay.
20 μL was transferred from the 5× tet plate to the ARP and mixed, then 5 μL of 5× tet and the compounds were transferred to the cell plate and mixed using the Bravo. The cell plate was placed in the humidified 37° C. 5% CO2 incubator for 24 hours.
The MultiTox-Fluor Multiplex Cytotoxicity Assay was performed in accordance with the manufacturer's protocol. After cells were incubated with tet and compound for 24 hours, 25 μL of 1× MultiTox reagent was added to each well using the Multidrop dispenser; the plates were placed on a plate shaker (600 rpm) for 2 minutes, then centrifuged briefly and placed back in the 37° C. incubator for 30 minutes. […]
On to `C[C@H]1C[C@@](O)(c2cccc(Cl)c2)CCN1Cc1ncco1` [Compound 22], for which the IC50 was in the range of 500 to 5000 nM.

Turning to `C[C@H]1C[C@@](O)(c2ccc3c(c2)CCO3)CCN1Cc1ccc2c(c1)n(C)c(=O)n2C` [Compound 14], the IC50 was 500 to 5000 nM.

For the compound `C[C@H]1C[C@@](O)(c2cccc(C3CC3)c2)CCN1Cc1ccc2c(c1)n(C)c(=O)n2C` [Compound 13], the IC50 is ≤ 100 nM.

Turning to `C[C@H]1C[C@@](O)(c2ccc(Cl)c(Cl)c2)CCN1Cc1ccc2c(c1)n(C)c(=O)n2C` [Compound 9], the IC50 is ≤ 100 nM.

Consider `Cc1ccc(CN2CC[C@](O)(c3cccc(Cl)c3)C[C@@H]2C)nn1` [Compound 18], for which the IC50 was 500 to 5000 nM.

As for `Cc1ncc(CN2CC[C@](O)(c3cccc(Cl)c3)C[C@@H]2C)cn1` [Compound 19], the IC50 was 500 to 5000 nM.

On to `C[C@H]1C[C@](O)(c2ccc(Cl)cc2)CCN1Cc1ccc2c(c1)n(C)c(=O)n2C` [Compound 6], for which the IC50 lay within 500 to 5000 nM.

As for `C[C@H]1C[C@@](O)(c2cccc(Cl)c2)CCN1Cc1cnn(-c2ccccn2)c1` [Compound 23], the IC50 was ≤ 100 nM.

On to `C[C@H]1C[C@@](O)(c2ccccc2)CCN1Cc1ccc2c(c1)n(C)c(=O)n2C` [Compound 2], for which the IC50 was in the range of 100 to 500 nM.

On to `C[C@@H]1C[C@](O)(c2ccccc2)CCN1Cc1ccc2c(c1)n(C)c(=O)n2C` [Compound 3], for which the IC50 lay in the range of 500 to 5000 nM.

Turning to `CC(C)n1cc(CN2CC[C@](O)(c3cccc(Cl)c3)C[C@@H]2C)cn1` [Compound 17], the IC50 was 500 to 5000 nM.

With `C[C@H]1C[C@@](O)(c2cc(F)cc(Cl)c2)CCN1Cc1ccc2c(c1)n(C)c(=O)n2C` [Compound 8], the IC50 was ≤ 100 nM.

For the compound `Cc1nc(CN2CC[C@](O)(c3cccc(Cl)c3)C[C@@H]2C)c[nH]1` [Compound 26], the IC50 was in the range of 500 to 5000 nM.

Regarding `C[C@H]1C[C@@](O)(c2cccc(Cl)c2)CCN1Cc1ccc2c(c1)n(C)c(=O)n2C` [Compound 4], the IC50 was ≤ 100 nM.

As to `C[C@@H]1C[C@](O)(c2ccc(Cl)cc2)CCN1Cc1ccc2c(c1)n(C)c(=O)n2C` [Compound 10], the IC50 was ≤ 100 nM.

For `C[C@@H]1C[C@](O)(c2ccc(Cl)c(Cl)c2)CCN1Cc1ccc2c(c1)n(C)c(=O)n2C` [Compound 12], the IC50 is 100 to 500 nM.

For the compound `Cc1cccc([C@@]2(O)CCN(Cc3ccc4c(c3)n(C)c(=O)n4C)[C@@H](C)C2)c1` [Compound 1, 5-[[(2S,4R)-4-hydroxy-2-methyl-4-(m-tolyl)-1-piperidyl]methyl]-1,3-dimethyl-benzimidazol-2-one], the IC50 is 100 to 500 nM.

For `C[C@H]1C[C@@](O)(c2cccc(Cl)c2)CCN1Cc1cnn(CC(=O)N(C)C)c1` [Compound 20], the IC50 is 100 to 500 nM.

As to `C[C@H]1CC(O)(c2cccc(C(F)(F)F)c2)CCN1Cc1ccc2c(c1)n(C)c(=O)n2C` (some centres unmarked) [Compound 5], the IC50 was 100 to 500 nM.

Regarding `Cc1cc(C)cc([C@@]2(O)CCN(Cc3ccc4c(c3)n(C)c(=O)n4C)[C@@H](C)C2)c1` [Compound 15], the IC50 was ≤ 100 nM.

Consider `Cc1nc(CN2CC[C@](O)(c3cccc(Cl)c3)C[C@@H]2C)co1` [Compound 25], for which the IC50 fell in the range of 500 to 5000 nM.

For the compound `C[C@H]1C[C@@](O)(c2cccc(Cl)c2)CCN1Cc1cnn(C2CCS(=O)(=O)C2)c1` (stereo partly drawn) [Compound 16, (2S,4R)-4-(3-chlorophenyl)-1-[[1-(1,1-dioxothiolan-3-yl)pyrazol-4-yl]methyl]-2-methyl-piperidin-4-ol], the IC50 lay within 100 to 500 nM.

Take `C[C@H]1C[C@@](O)(c2cccc(Cl)c2)CCN1Cc1cnn(CCS(C)(=O)=O)c1` [Compound 21]: the IC50 was ≤ 100 nM.

On to `C[C@@H]1C[C@](O)(c2cccc(F)c2)CCN1Cc1ccc2c(c1)n(C)c(=O)n2C` [Compound 11], for which the IC50 lay within 100 to 500 nM.

In the case of `C[C@H]1C[C@@](O)(c2cccc(Cl)c2)CCN1Cc1ccc(C(N)=O)cc1` [Compound 24], the IC50 lay within 100 to 500 nM.

For `C[C@H]1C[C@@](O)(c2ccc(Cl)cc2)CCN1Cc1ccc2c(c1)n(C)c(=O)n2C` [Compound 7], the IC50 was ≤ 100 nM.
